Data as given in patent publication US4885299A, “2-(2,3-dihydro-2-oxo-3-benzofuranyl)acetic acids antihypoxic and nootropic effects having” (ADIR Et Cie, priority 1987, dated 1989).
Where a name gives a salt, the structure may show the parent alone.

Tests used:
[1] = tested on: brain energy-rich compounds (ATP, ADP, AMP); test: Acute hypoxia in rats; protection of tissue energy-rich compounds in brain (ATP, energy content); format: in vivo, Male Fischer 344 rats (Charles River); conditions: 3% oxygen for 2 minutes
Experimental: (§1) The compounds of the present invention were tested in respect of their capacity to prolong the survival of cerebral tissue during acute hypoxia in mice, or to maintain the level of tissue energy-rich compounds in rats subjected to a fall in the oxygen supply [Pharmacology of Cerebral Ischemia, p. 334-339 (1968) Elsevier Science Publishers B.V., J. Krieglstein ed.]. […] Forsch. Drug. Res. (1986), 36 II No. 9, p. 1314-1320].
Whereas the control rats breath a gaseous mixture containing 21% of oxygen and 79% of nitrogen, the rats subjected to hypoxia breath a mixture of 3% oxygen and 97% nitrogen for 2 minutes.
At the end of the hypoxic period, the animals are rapidly sacrificed by total immersion in liquid nitrogen. The frozen brain is removed and the energy-rich compounds (ATP, ADP, AMP) are extracted and assayed by the luciferin luminescence method.
The tissue energy content (EC) is calculated according to ATKINSON's formula: [formula]

[2] = tested on: Acute hypoxia in mice; survival of the brain; test: Acute hypoxia in mice (hypobaric); brain survival time to final respiratory gasp; format: in vivo, Male CD1 mice (Charles River); conditions: 30 minutes before hypoxia, mice; for change in vivo at 300 mg/kg: 300 mg/kg I.P.
Experimental: as §1
The survival of the brain is assessed by measuring the time at which the final respiratory gasp is observed.
The survival time of a treated batch is compared with that of a control batch receiving only the solvent.
The percentage increase in the survival time after the animals are treated with the compounds of the invention is shown in Table II.

[3] = Mus musculus, ip, 100 mg/kg I.P., read-out: Percentage increase in the survival time
[4] = Mus musculus, ip, read-out: Percentage increase in the survival time
[5] = Mus musculus, ip, 10 mg/kg I.P., read-out: Percentage increase in the survival time
[6] = Mus musculus, ip, 30 mg/kg I.P., read-out: Percentage increase in the survival time

| SMILES | change in vivo at 100 mg/kg [2, 3] | change in vivo at 30 mg/kg [2, 6] | other results |
| --- | --- | --- | --- |
| O=C(O)CC1(c2ccccc2)C(=O)Oc2ccc(Cl)cc21 (stereo not shown) [Example 1, 2-(5-Chloro-2,3-dihydro-2-oxo-3-phenyl-3-benzofuranyl)acetic acid] | 46% |  | % inhibition of the effects of hypoxia, ATP ([1]; 100 mg/kg I.P.): 54%; % inhibition of the effects of hypoxia, EC (tissue energy content) ([1]; 100 mg/kg I.P.): 61.7% |
| O=C(O)CC1(c2ccccc2)C(=O)Oc2ccc(F)cc21 (stereo not shown) [Example 2, 2-(2,3-Dihydro-5-fluoro-2-oxo-3-phenyl-3-benzofuranyl)acetic acid] | 38% |  |  |
| O=C(O)CC1(c2ccccc2)C(=O)Oc2ccccc21 (stereo not shown) [Example 3, 2-(2,3-Dihydro-2-oxo-3-phenyl-3-benzofuranyl) acetic acid] | 29% |  |  |
| O=C(O)CC1(c2ccc(Cl)cc2)C(=O)Oc2ccccc21 (stereo not shown) [Example 4, 2-[3-(4-Chlorophenyl)-2,3-dihydro-2-oxo-3-benzofuranyl)acetic acid] | 17% |  |  |
| O=C(O)CC1(c2ccccc2)C(=O)Oc2ccc(O)cc21 (stereo not shown) [Example 5, 2-(2,3-Dihydro-5-hydroxy-2-oxo-3-phenyl-3-benzofuranyl)acetic acid] | 69% |  |  |
| COc1ccc2c(c1)C(CC(=O)O)(c1ccccc1)C(=O)O2 (stereo not shown) [Example 6, 2-(2,3-Dihydro-5-methoxy-2-oxo-3-phenyl-3-benzofuranyl)acetic acid] | 41% |  |  |
| O=C(CC1(c2ccccc2)C(=O)Oc2ccc(O)cc21)OCc1ccccc1 (stereo not shown) [Example 7] | 14% |  | change in vivo at 300 mg/kg [2, 4]: 156% |
| CCOC(=O)CC1(c2ccccc2)C(=O)Oc2ccc(Cl)cc21 (stereo not shown) [Example 8, 2-(5-Chloro-2,3-dihydro-2-oxo-3-phenyl-3-benzofuranyl)acetic acid ethyl ester] | 52% |  |  |
| O=C(CC1(c2ccccc2)C(=O)Oc2ccc(Cl)cc21)N1CCN(c2ccc(C(F)(F)F)cn2)CC1 (stereo not shown) [Example 9, 2-(5-Chloro-2,3-dihydro-2-oxo-3-phenyl-3-benzofuranyl)-1-[4-(5-trifluoromethyl-2-pyridyl)piperazinyl]-1-oxoethane] |  |  | % inhibition of the effects of hypoxia, ATP ([1]; 30 mg/kg I.P.): 65.6%; % inhibition of the effects of hypoxia, EC (tissue energy content) ([1]; 30 mg/kg I.P.): 60.1%; Percentage increase in the survival time ([2]; 3 mg/kg I.P.): +65%; Percentage increase in the survival time ([2]; 10 mg/kg I.P.): +82%; Percentage increase in the survival time ([2]; 30 mg/kg I.P.): +77%; Percentage increase in the survival time ([2]; 100 mg/kg I.P.): greater than 180%; Percentage increase in the survival time ([2]; 100 mg/kg I.P., listed as Ex. 9): +183% |
| CCN(CC)C(=O)CC1(c2ccccc2)C(=O)Oc2ccc(Cl)cc21 (stereo not shown) [Example 10, N,N-Diethyl-2-(5-chloro-2,3-dihydro-2-oxo-3-phenyl-3-benzofuranyl)acetamide] | 97% |  |  |
| CC(C)C[C@@H](C(=O)O)N(C)C(=O)CC1(c2ccccc2)C(=O)Oc2ccc(Cl)cc21 (stereo partly shown) [Example 11, N-Methyl-N-[2-(5-chloro-2,3-dihydro-2-oxo-3-phenyl-3-benzofuranyl)acetyl]leucine] | 159% |  |  |
| CCN(CC)CCN(C)C(=O)CC1(c2ccccc2)C(=O)Oc2ccc(Cl)cc21 (stereo not shown) [Example 12, N-Methyl-N-diethylaminoethyl-2-(5-chloro-2,3-dihydro-2-oxo-3-phenyl-3-benzofuranyl)acetamide hydrochloride] | > 180% | 84% | change in vivo at 3 mg/kg ([2]; Mus musculus, ip, 3 mg/kg I.P., read-out: Percentage increase in the survival time): 32%; change in vivo at 10 mg/kg [2, 5]: 41% |
| O=C(O)[C@@H]1CCCN1C(=O)CC1(c2ccccc2)C(=O)Oc2ccc(Cl)cc21 (stereo partly shown) [Example 13, N-[2-(5-chloro-2,3-dihydro-2-oxo-3-phenyl-3-benzofuranyl)acetyl]proline] | 8% |  |  |
| O=C(CC1(c2ccccc2)C(=O)Oc2ccc(Cl)cc21)N1CCOCC1 (stereo not shown) [Example 14, 2-(5-Chloro-2,3-dihydro-2-oxo-3-phenyl-3-benzofuranyl)-1-morpholino-1-oxoethane] | 88% |  |  |
| O=C(CC1(c2ccccc2)C(=O)Oc2ccc(Cl)cc21)N1CCN(CCO)CC1 (stereo not shown) [Example 15, 2-(5-Chloro-2,3-dihydro-2-oxo-3-phenyl-3-benzofuranyl)-1-[4-(2-hydroxyethyl)piperazinyl]-1-oxoethane hydrochloride] | > 130% | 41% | change in vivo at 10 mg/kg [2, 5]: 34%; change in vivo at 200 mg/kg ([2]; Mus musculus, ip, 200 mg/kg I.P., read-out: Percentage increase in the survival time): 203% |
| O=C(CC1(c2ccccc2)C(=O)Oc2ccc(Cl)cc21)N1CCN(Cc2ccccc2)CC1 (stereo not shown) [Example 17, 2-(5-Chloro-2,3-dihydro-2-oxo-3-phenyl-3-benzofuranyl)-1-(4-benzylpiperazinyl)-1-oxoethane] | 66% | 40% |  |
| O=C(CC1(c2ccccc2)C(=O)Oc2ccc(Cl)cc21)N1CCN(c2cccc(C(F)(F)F)c2)CC1 (stereo not shown) [Example 18, 2-(5-Chloro-2,3-dihydro-2-oxo-3-phenyl-3-benzofuranyl)-1-[4-(3-trifluoromethylphenyl)piperazinyl)-1-oxoethane hydrochloride] | 88% | 53% | change in vivo at 10 mg/kg [2, 5]: 41%; change in vivo at 300 mg/kg [2, 4]: 103% |
| Cc1cccc(N2CCN(C(=O)CC3(c4ccccc4)C(=O)Oc4ccc(Cl)cc43)CC2)c1 (stereo not shown) [Example 19, 2-(5-Chloro-2,3-dihydro-2-oxo-3-phenyl-3-benzofuranyl)-1-[4-(3-methylphenyl)piperazinyl]-1oxoethane hydrochloride] | 76% |  |  |
| CN(CC(=O)O)C(=O)CC1(c2ccccc2)C(=O)Oc2ccccc21 (stereo not shown) [Example 21, N-Methyl-N-[2-(2,3-dihydro-2-oxo-3-phenyl-3-benzofuranyl)acetyl]glycine] | 14% |  |  |
| O=C(CC1(c2ccccc2)C(=O)Oc2ccccc21)N1CCN(Cc2ccc3c(c2)OCO3)CC1 (stereo not shown) [Example 22, 2-(2,3-Dihydro-2-oxo-3-phenyl-3-benzofuranyl)-1-[4-(3,4-methylenedioxybenzyl)piperazinyl]-1-oxoethane hydrochloride] | 126% | 42% | Percentage increase in the survival time ([2]; 100 mg/kg I.P., listed as Ex. 22, hydrochloride): +126%; change in vivo at 10 mg/kg [2, 5]: 11% |
| Cc1cccc(CN2CCN(C(=O)CC3C(=O)Oc4ccccc43)CC2)c1 (stereo not shown) [Example 25, 2-(2,3-Dihydro-2-oxo-3-benzofuranyl)-1-[4-(3-methylbenzyl)piperazinyl]-1-oxoethane hydrochloride] |  |  | % inhibition of the effects of hypoxia, ATP ([1]; 100 mg/kg I.P.): 50.5%; % inhibition of the effects of hypoxia, EC (tissue energy content) ([1]; 100 mg/kg I.P.): 52.6% |
| Cc1cccc(N2CCN(C(=O)CC3C(=O)Oc4ccc(Cl)cc43)CC2)c1 (stereo not shown) [Example 26, 2-(5-Chloro-2,3-dihydro-2-oxo-3-benzofuranyl)-1-[4-(3-methylphenyl)piperazinyl]-1-oxoethane hydrochloride] | > 130% | 53% | change in vivo at 10 mg/kg [2, 5]: 52%; change in vivo at 300 mg/kg [2, 4]: 190% |
| O=C(CC1(c2ccccc2)C(=O)Oc2ccc(Cl)cc21)N1CCN(c2cc(C(F)(F)F)ccn2)CC1 (stereo not shown) [Example 27, 2-(5-Chloro-2,3-dihydro-2-oxo-3-phenyl-3-benzofuranyl)-1-[4-(4-trifluoromethyl-2-pyridyl)piperazinyl]-1-oxoethane] | 76% | 59% | change in vivo at 10 mg/kg [2, 5]: 36% |
| CN(C(=O)CC1(c2ccccc2)C(=O)Oc2ccc(Cl)cc21)[C@@H](Cc1ccccc1)C(=O)O (stereo partly shown) [Example 28, N-[2-(5-Chloro-2,3-dihydro-2-oxo-3-phenyl-3-benzofuranyl)acetyl]-N-methylphenylalanine] | 90% |  |  |
| O=C(O)CN1CCN(C(=O)CC2(c3ccccc3)C(=O)Oc3ccc(Cl)cc32)CC1 (stereo not shown) [Example 29, 2-(5-Chloro-2,3-dihydro-2-oxo-3-phenyl-3-benzofuranyl)-1-(4-carboxymethylpiperazinyl)-1-oxoethane hydrochloride] | 66% | 32% |  |
| COc1cccc(C2CCCN(C(=O)CC3(c4ccccc4)C(=O)Oc4ccc(Cl)cc43)C2)c1 (stereo not shown) [Example 30, 2-(5-Chloro-2,3-dihydro-2-oxo-3-phenyl-3-benzofuranyl)-1-[3-(3-methoxyphenyl)piperidyl]-1-oxoethane] | 103% | 36% | change in vivo at 10 mg/kg [2, 5]: 32% |
| CCN1CCCC1CN(C)C(=O)CC1(c2ccccc2)C(=O)Oc2ccc(Cl)cc21 (stereo not shown) [Example 32, 2-(5-Chloro-2-oxo-3-phenyl-3-benzofuranyl)-1-[(1-ethylpyrrolidinyl)methyl]methylamino-1-oxoethanehydrochloride] |  | 26% |  |
